{
  "source": "paper PMC7355684",
  "about": "(Pharmaceutics, 2020)",
  "key": {"A2058 cells": {"test_system": "A2058 cells", "format": "cell-based, human", "settings": "1e-5 M", "experimental": "(§1) EBC-1 and Colo-205 model cells have weak/negligible adherent properties, and A2058 cells could not produce constant cell index values. Therefore, a colorimetric assay (alamarBlue-assay) was chosen instead of the xCELLigence system to investigate the viability of these model cells treated with the conjugates. Due to the growth characteristics of NHDF cells, alamarBlue-assay was performed also on this cell line.\n(§2) The protocol for the alamarBlue-assay was similar to the method which was published earlier, with some minor modifications. Briefly, the cell seeding occurred on 96-well cell culture plates (Sarstedt AG, Nümbrecht, Germany) at 10^4 cells/well concentration. After a 24 h long culturing period, the treatment was carried out with the conjugates at 10^−4, 10^−5 and 10^−6 M final concentrations for 24, 48 and 72 h. In the next steps, the alamarBlue reagent (0.15 mg/mL, Sigma-Aldrich) dissolved in phosphate-buffered saline (PBS; pH = 7.2), was added to the wells. After 6 h incubation with the reagent, the fluorescence intensity of the samples was obtained by an LS-50B Luminescence Spectrometer (Perkin Elmer Ltd., Buckinghamshire, UK) or a Fluoroskan^TM FL Microplate Fluorometer and Luminometer (Thermo Scientific, Waltham, MA, USA) by using the following settings: λex = 560 nm and λem = 590 nm.\n(§3) Three parallels were performed per treatment group. In the case of controls, an equivalent volume of cell culture media was added to the cell. Fluorescence intensities of the samples treated with various concentrations of conjugates were expressed as a percentage of the fluorescence of control."}, "EBC-1 cells": {"test_system": "EBC-1 cells", "format": "cell-based, human", "settings": "1e-5 M", "experimental": "as §1, §2, §3"}, "Colo-205 cells": {"test_system": "Colo-205 cells", "format": "cell-based, human", "settings": "1e-5 M", "experimental": "as §1, §2, §3"}, "[1]": {"test": "Acute and chronic toxicity in healthy mice", "format": "in vivo", "settings": "healthy Balb/c male mice, 3 per group; i.p.; acute 3.125, 6.25, 12.5, 25 mg/kg Dau-content single; chronic 10 mg/kg Dau-content on days 1, 3, 7, 9, 11; 14 days", "experimental": "Prior to the determination of in vivo antitumor activity, the acute and chronic toxicity studies of conjugate 4 (Dau=Aoa-GFLG-K(Dau=Aoa)-SKAAKN-OH) were investigated. Healthy Balb/c male mice (3 animals in each group with 29–33 g body weight) were used for these experiments. The conjugate was dissolved in sterile water for injection (Pharmamagist Kft., Budapest, Hungary) and injected in a volume of 0.1 mL/10 g body weight using the appropriate concentrations. In acute toxicity study, intraperitoneal (i.p.) administration of the conjugate 4 was carried out in 4 different doses: 3.125, 6.25, 12.5 and 25 mg/kg Dau-content. In chronic toxicity study, mice were treated with a dose of 10 mg/kg Dau-content of the conjugate on days 1, 3, 7, 9 and 11 (5 treatments). The toxicity was evaluated on the basis of life span, behavior and looking of the mice, as well as body weight. These parameters were followed for 14 days."}, "PANC-1 cells": {"test_system": "PANC-1 cells", "test": "cells", "format": "cell-based, human", "settings": "24 h", "experimental": "This measurement is based on the registration of electrical resistance (impedance, Z) in alternating current (AC) field. The living cells transplanted to the gold measuring electrodes are physically insulated by phospholipid bilayer that covers them. This instrumentally measurable property changes (decreases) in response to cellular cytotoxic agents. Our measurements were performed on xCELLigence single plate (ACEA Biosciences, San Diego, CA, USA) dedicated for impedimetric analysis of cellular samples at 37 °C and 5% CO2.\nDuring the initial phase of the experiments—the baseline recording—a special 96-well cell culture plate, E-plate (ACEA Biosciences), equipped with measuring electrodes, was pretreated with freshly prepared cell culture medium (for 60 min; sampling frequency: 1 min). Subsequently, PANC-1 cells were plated at a cell density of 10^4 cells/well. During the 24 h incubation, the cells evenly covered the electrodes at the bottom of the wells of the E-plate. The resulting confluent cell cultures were then treated with the test substances at the following final concentrations: 10^−6, 10^−5, 10^−4 M. Total treatment duration was 72 h and the sampling rate was 1 min (0–24 h); and then 15 min (48–72 h). In our measurements, three replicates were used, the control was the drug-free medium. […] The CI results were analyzed with xCELLigence RTCA 2.0 software and Origin Pro 8.0 software."}},
  "note": "Where a SMILES comes first, the peptide text is derived from it. The star is where a group is joined. Daunorubicin(13-NOCH2CO) = COc1cccc2c1C(=O)c1c(O)c3c(c(O)c1C2=O)C[C@@](O)(C(C)=NOCC(=O)*)C[C@@H]3O[C@H]1C[C@H](N)[C@H](O)[C@H](C)O1",
  "data": [
    {"smiles": "COc1cccc2c1C(=O)c1c(O)c3c(c(O)c1C2=O)C[C@@](O)(C(C)=NOCC(=O)NCCCC[C@H](NC(=O)CNC(=O)[C@H](CC(C)C)NC(=O)[C@H](Cc1ccccc1)NC(=O)CNC(=O)CON=C(C)[C@]1(O)Cc2c(O)c4c(c(O)c2[C@@H](O[C@H]2C[C@H](N)[C@H](O)[C@H](C)O2)C1)C(=O)c1c(OC)cccc1C4=O)C(=O)N[C@@H](CO)C(=O)N[C@@H](CCCCN)C(=O)N[C@@H](C)C(=O)N[C@@H](C)C(=O)N[C@@H](CCCCN)C(=O)N[C@@H](CC(N)=O)C(=O)O)C[C@@H]3O[C@H]1C[C@H](N)[C@H](O)[C@H](C)O1", "note": "[conjugate 4, Dau=Aoa-GFLG-K(Dau=Aoa)SKAAKN-OH] ({Daunorubicin(13-NOCH2CO)}-GFLGK(Daunorubicin(13-NOCH2CO))SKAAKN-OH)", "values": [
      {"measurement": "Viability (%) at 10-5 M concentration, after 72 h incubation, A2058", "setting": "A2058 cells", "result": "29.8 ± 4.5", "unit": "%"},
      {"measurement": "Viability (%) at 10-5 M concentration, after 72 h incubation, EBC-1", "setting": "EBC-1 cells", "result": "32.2 ± 4.2", "unit": "%"},
      {"measurement": "Viability (%) at 10-5 M concentration, after 72 h incubation, Colo-205", "setting": "Colo-205 cells", "result": "19.8 ± 0.5", "unit": "%"},
      {"measurement": "Acute and chronic toxicity (body weight, general looking, behavior)", "setting": "[1]", "result": "not toxic at the applied concentrations"},
      {"measurement": "Cell viability at 10^−6 M", "setting": "PANC-1 cells; 1e-6 M", "result": "higher than 100%"},
      {"measurement": "Viability after 24 h", "setting": "PANC-1 cells; 1e-5 M", "result": 91, "unit": "%"}
    ]}
  ]
}
